Experiments:
Dirofilaria immitis = assay: Effect test on Dirofilaria immitis (larval motility inhibition); settings: 168 h, read-out: motility inhibition rate
Plutella xylostella = assay: Insecticidal test against Plutella xylostella; settings: in Brassica rapa, 144 h, read-out: corrected mortality (%), assessment
Excerpt: Six days after the immersion in the drug solution, the number of surviving insects was examined.

Row | Compound | inhibition at 100 µM (Dirofilaria immitis) | mortality at 500 µg/mL (Plutella xylostella)
1 | O=C1CC(c2ccc(C(F)(F)F)cc2)CC(=O)C1=C(Nc1ccc(F)cn1)Nc1ccc(F)cn1 (stereo not drawn) [1-1] | ≥ 50% | 100%
2 | O=C1CC(c2ccc(Cl)s2)CC(=O)C1=C(Nc1ccc(F)cn1)Nc1ccc(F)cn1 (stereo not drawn) [1-2] | ≥ 50% | 
3 | O=C1CC(c2ccc(C(F)(F)F)cc2)CC(=O)C1=C(Nc1ccc(F)nc1)Nc1ccc(F)nc1 (stereo not drawn) [1-3] | ≥ 50% | 
4 | O=C1CC(c2ccc(C(F)(F)F)cc2)CC(=O)C1=C(Nc1ccnc(F)c1)Nc1ccnc(F)c1 (stereo not drawn) [1-4] | ≥ 50% | 
5 | O=C1CC(c2ccc(Br)cn2)CC(=O)C1=C(Nc1ccc(F)cn1)Nc1ccc(F)cn1 (stereo not drawn) [1-5] | ≥ 50% | 
6 | O=C1CC(c2ccc(Br)cn2)CC(=O)C1=C(Nc1ccc(F)nc1)Nc1ccc(F)nc1 (stereo not drawn) [1-6] | ≥ 50% | 
7 | O=C1CC(c2ccc(Br)cn2)CC(=O)C1=C(Nc1ccnc(F)c1)Nc1ccnc(F)c1 (stereo not drawn) [1-7] | ≥ 50% | 
8 | O=C1CC(c2ccc(C(F)(F)F)nc2)CC(=O)C1=C(Nc1ccc(F)nc1)Nc1ccc(F)nc1 (stereo not drawn) [1-8] | ≥ 50% | 
9 | CNC(Nc1ccc(F)cc1)=C1C(=O)CC(c2ccc(Br)cn2)CC1=O (stereo not drawn) [1-10] | ≥ 50% | 100%
10 | CNC(NC)=C1C(=O)CC(c2ccco2)CC1=O (stereo not drawn) [1-11] | ≥ 50% | 
11 | O=C1CC(c2ccc(C(F)(F)F)cc2)CC(=O)C1=C(NCc1ccc(OC(F)(F)F)cc1)Nc1ccc(F)cc1 (stereo not drawn) [1-14] | ≥ 50% | 
12 | Cc1cc(NC(Nc2ccc(F)cc2)=C2C(=O)CC(c3ccc(C(F)(F)F)cc3)CC2=O)no1 (stereo not drawn) [1-15] | ≥ 50% | 
13 | O=C1CC(c2ccc(C(F)(F)F)cc2)CC(=O)C1=C(NCc1ccccn1)Nc1ccc(F)cc1 (stereo not drawn) [1-19] | ≥ 50% | 
14 | O=C1CC(c2ccc(C(F)(F)F)cc2)CC(=O)C1=C(NCC(F)(F)F)Nc1ccc(F)cc1 (stereo not drawn) [1-23] | ≥ 50% | 100%
15 | COCCNC(Nc1ccc(F)cc1)=C1C(=O)CC(c2ccc(C(F)(F)F)cc2)CC1=O (stereo not drawn) [1-25] | ≥ 50% | 
16 | O=C1CC(c2ccc(C(F)(F)F)cc2)CC(=O)C1=C(NCCBr)Nc1ccc(F)cc1 (stereo not drawn) [1-27] | ≥ 50% | 
17 | O=C1CC(c2ccc(C(F)(F)F)cc2)CC(=O)C1=C(NCC(F)(F)F)NCC(F)(F)F (stereo not drawn) [1-28] | ≥ 50% | 100%
18 | COCCNC(NCCOC)=C1C(=O)CC(c2ccc(C(F)(F)F)cc2)CC1=O (stereo not drawn) [1-29] | ≥ 50% | 

Row | Compound | inhibition at 100 µM (Dirofilaria immitis) | mortality at 500 µg/mL (Plutella xylostella)
19 | O=C1CC(c2ccc(C(F)(F)F)cc2)CC(=O)C1=C(NCc1ccc(F)cc1)Nc1ccc(F)cc1 (stereo not drawn) [1-34] | ≥ 50% | 
20 | O=C1CC(c2ccc(C(F)(F)F)cc2)CC(=O)C1=C(Nc1ccc(F)cc1)NC1CC1 (stereo not drawn) [1-36] | ≥ 50% | 
21 | CC(C)(C)ONC(Nc1ccc(F)cc1)=C1C(=O)CC(c2ccc(C(F)(F)F)cc2)CC1=O (stereo not drawn) [1-38] | ≥ 50% | 100%
22 | CN(C)CCNC(NCCN(C)C)=C1C(=O)CC(c2ccc(C(F)(F)F)cc2)CC1=O (stereo not drawn) [1-42] | ≥ 50% | 
23 | CC1(C)C(=O)C(=C(Nc2ccc(F)cc2)Nc2ccc(F)cc2)C(=O)CC1c1ccc(Br)cn1 (stereo not drawn) [1-44] | ≥ 50% | 100%
24 | CC1(C)C(=O)C(=C(Nc2ccc(F)cn2)Nc2ccc(F)cn2)C(=O)CC1c1ccc(Br)cn1 (stereo not drawn) [1-45] | ≥ 50% | 100%
25 | CC1(C)C(=O)C(=C(Nc2ccc(F)nc2)Nc2ccc(F)nc2)C(=O)CC1c1ccc(Br)cn1 (stereo not drawn) [1-46] | ≥ 50% | 
26 | CC1(C)C(=O)C(=C(Nc2ccnc(F)c2)Nc2ccnc(F)c2)C(=O)CC1c1ccc(Br)cn1 (stereo not drawn) [1-47] | ≥ 50% | 
27 | O=C1CC(c2ccc(Cl)s2)CC(=O)C1=C(Nc1ccc(F)nc1)Nc1ccc(F)nc1 (stereo not drawn) [1-49] | ≥ 50% | 
28 | O=C1CCC(CC(F)(F)F)C(=O)C1=C(Nc1ccc(F)nc1)Nc1ccc(F)nc1 (stereo not drawn) [1-52] | ≥ 50% | 
29 | O=C1CCC(CC(F)(F)F)C(=O)C1=C(Nc1ccc(F)cc1)Nc1ccc(F)nc1 (stereo not drawn) [1-54] | ≥ 50% | 
30 | CNC(Nc1ccc(F)nc1)=C1C(=O)CC(c2ccc(C(F)(F)F)cc2)CC1=O (stereo not drawn) [1-56] | ≥ 50% | 
31 | CNC(Nc1ccc(F)cc1)=C1C(=O)CC(c2ccc(C(F)(F)F)cc2)CC1=O (stereo not drawn) [1-57] | ≥ 50% | 
32 | O=C1CC(c2ccc(C(F)(F)F)cc2)CC(=O)C1=C(Nc1ccc(F)cc1)Nc1cnccn1 (stereo not drawn) [1-64] | ≥ 50% | 
33 | O=C1CC(c2ccc(C(F)(F)F)cc2)CC(=O)C1=C(Nc1ccc(F)cc1)NC1CCOc2ccccc21 (stereo not drawn) [1-69] | ≥ 50% | 
34 | CNC(Nc1ccc(F)nc1)=C1C(=O)CC(c2ccc(C(F)(F)F)cc2)C(c2ccccn2)C1=O (stereo not drawn) [1-70] | ≥ 50% | 
35 | O=C1CC(c2ccc(C(F)(F)F)cc2)C(c2ccncc2)C(=O)C1=C(Nc1ccc(F)nc1)Nc1ccc(F)nc1 (stereo not drawn) [1-72] | ≥ 50% | 
